Experimental findings from patent US10294229B2, “Heteroaryl substituted aminopyridine compounds” (BRISTOL-MYERS SQUIBB COMPANY, priority 2015, dated 2019) are described below.

pIC50: −log10 of the molar value.

One may read the pIC50 as −log10 of the IC50, conventionally taken in molar units.

IRAK4, sequence (Q9NWZ3 whole entry, species assumed): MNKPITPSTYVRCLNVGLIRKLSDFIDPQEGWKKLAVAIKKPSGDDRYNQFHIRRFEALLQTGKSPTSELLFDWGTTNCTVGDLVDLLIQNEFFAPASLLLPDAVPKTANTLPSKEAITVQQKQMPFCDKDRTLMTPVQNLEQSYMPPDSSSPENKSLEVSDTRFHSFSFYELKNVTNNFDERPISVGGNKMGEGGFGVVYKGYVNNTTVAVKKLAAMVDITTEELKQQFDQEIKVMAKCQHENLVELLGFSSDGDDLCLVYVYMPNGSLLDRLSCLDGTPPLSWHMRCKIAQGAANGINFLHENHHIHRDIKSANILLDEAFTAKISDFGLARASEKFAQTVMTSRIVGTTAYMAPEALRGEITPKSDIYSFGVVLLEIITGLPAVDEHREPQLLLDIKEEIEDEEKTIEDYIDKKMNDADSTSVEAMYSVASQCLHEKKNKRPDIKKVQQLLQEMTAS

This assay concerns the target IRAK4 (Homo sapiens (Human), UniProt Q9NWZ3). As to the kind of experiment: IRAK4 Inhibition Assay. It is filed as biochemical. The settings on record: ATP 500 μM; IRAK4 0.6 nM. On the procedure: The assays were performed in U-bottom 384-well plates. The final assay volume was 30 μL prepared from 15 μL additions of enzyme and substrates (fluoresceinated peptide and ATP) and test compounds in assay buffer (20 mM HEPES pH 7.2, 10 mM MgCl2, 0.015% Brij 35 and 4 mM DTT). The reaction was initiated by the combination of IRAK4 with substrates and test compounds. The reaction mixture was incubated at room temperature for 60 min. and terminated by adding 45 μL of 35 mM EDTA to each sample. The reaction mixture was analyzed on the Caliper LABCHIP® 3000 (Caliper, Hopkinton, Mass.) by electrophoretic separation of the fluorescent substrate and phosphorylated product. Inhibition data were calculated by comparison to no enzyme control reactions for 100% inhibition and vehicle-only reactions for 0% inhibition. The final concentrations of reagents in the assays are ATP, 500 μM; FL-IPTSPITTTYFFFKKK peptide 1.5 μM; IRAK4, 0.6 nM; and DMSO, 1.6%.
Regarding `CC(C)Nc1cc(-n2cnc3cc(C#N)cnc32)ncc1-c1cn([C@@H]2COC[C@H]2O)nn1` (single isomer, unassigned) [Example 74], the pIC50 is 8.15. Next, `CC(C)Nc1cc(-n2ncc3cc(C#N)cnc32)ncc1-c1cn(CC(O)Cc2ccccc2)nn1` (single isomer, unassigned) [Example 76, 1-(5-(1-(2-hydroxy-3-phenylpropyl)-1H-1,2,3-triazol-4-yl)-4-(isopropylamino)pyridin-2-yl)-1H-pyrazolo [3,4-b]pyridine-5-carbonitrile]: 8.15; `CC(C)Nc1cc(-n2ncc3cc(C#N)cnc32)ncc1-c1cn(CC(O)Cc2ccccc2)nn1` (single isomer, unassigned) [Example 77, 1-(5-(1-(2-hydroxy-3-phenylpropyl)-1H-1,2,3-triazol-4-yl)-4-(isopropylamino)pyridin-2-yl)-1H-pyrazolo [3,4-b]pyridine-5-carbonitrile]: 7.68; `CC(C)Nc1cc(-n2cnc3cc(C#N)cnc32)ncc1-c1cn(CC(O)Cc2ccccc2)nn1` (single isomer, unassigned) [Example 78, 3-(5-(1-(2-hydroxy-3-phenylpropyl)-1H-1,2,3-triazol-4-yl)-4-(isopropylamino)pyridin-2-yl)-3H-imidazo[4,5-b]pyridine-6-carbonitrile]: 7.37. As for `CC(C)Nc1cc(-n2cnc3cc(C#N)cnc32)ncc1-c1cn(CC(O)Cc2ccccc2)nn1` (single isomer, unassigned) [Example 79, 3-(5-(1-(2-hydroxy-3-phenylpropyl)-1H-1,2,3-triazol-4-yl)-4-(isopropylamino)pyridin-2-yl)-3H-imidazo[4,5-b]pyridine-6-carbonitrile], the negative logarithm of the IC50 (pIC50) was 7.59. Next, `CCC(C)(O)Cn1cc(-c2cnc(-n3cnc4cc(C#N)cnc43)cc2NC(C)C)nn1` (single isomer, unassigned) [Example 94, 3-(5-(1-(2-hydroxy-2-methylbutyl)-1H-1,2,3-triazol-4-yl)-4-(isopropylamino)pyridin-2-yl)-3H-imidazo[4,5-b]pyridine-6-carbonitrile]: 7.68; `CCC(C)(O)Cn1cc(-c2cnc(-n3cnc4cc(C#N)cnc43)cc2NC(C)C)nn1` (single isomer, unassigned) [Example 95, 3-(5-(1-(2-hydroxy-2-methylbutyl)-1H-1,2,3-triazol-4-yl)-4-(isopropylamino)pyridin-2-yl)-3H-imidazo[4,5-b]pyridine-6-carbonitrile]: 7.80; `CC(C)Nc1cc(-n2ncc3cc(C#N)cnc32)ncc1-c1cn([C@@H]2CCN(C(=O)C(C)(C)C)C[C@H]2O)nn1` (single isomer, unassigned) [Example 200]: 8.30.

Consider `COC(=O)N1CC[C@@H](n2cc(-c3cnc(-n4ncc5cc(C#N)cnc54)cc3NC(C)C)nn2)[C@H](O)C1` (single isomer, unassigned) [Example 201], for which the negative-log IC50 (pIC50) was 8.40. In the case of `COC(=O)N1CC[C@@H](n2cc(-c3cnc(-n4ncc5cc(C#N)cnc54)cc3NC(C)C)nn2)[C@H](O)C1` (single isomer, unassigned) [Example 205], the pIC50 is 8.30.

With `CC(O)Cc1cn(-c2cnc(-n3ncc4cc(C#N)cnc43)cc2NC2CC2)nn1` (single isomer, unassigned) [Example 274, 1-(4-(cyclopropylamino)-5-(4-(2-hydroxypropyl)-1H-1,2,3-triazol-1-yl)pyridin-2-yl)-1H-pyrazolo[3,4-b]pyridine-5-carbonitrile], the negative-log IC50 (pIC50) was 7.64. Next, `CC(O)Cc1cn(-c2cnc(-n3ncc4cc(C#N)cnc43)cc2NC2CC2)nn1` (single isomer, unassigned) [Example 275, 1-(4-(cyclopropylamino)-5-(4-(2-hydroxypropyl)-1H-1,2,3-triazol-1-yl)pyridin-2-yl)-1H-pyrazolo[3,4-b]pyridine-5-carbonitrile]: 7.52. Next, `CC(F)Cc1cn(-c2cnc(-n3cnc4cc(C#N)cnc43)cc2NC(C)C)nn1` (single isomer, unassigned) [Example 290, 3-(5-(4-(2-fluoropropyl)-1H-1,2,3-triazol-1-yl)-4-(isopropylamino)pyridin-2-yl)-3H-imidazo[4,5-b]pyridine-6-carbonitrile]: 7.60; `CC(F)Cc1cn(-c2cnc(-n3ncc4cc(C#N)cnc43)cc2NC(C)C)nn1` (single isomer, unassigned) [Example 292, 1-(5-(4-(2-fluoropropyl)-1H-1,2,3-triazol-1-yl)-4-(isopropylamino)pyridin-2-yl)-1H-pyrazolo[3,4-b]pyridine-5-carbonitrile]: 7.54; `CC(F)Cc1cn(-c2cnc(-n3cnc4cnc(N)nc43)cc2NC(C)C)nn1` (single isomer, unassigned) [Example 293, 9-(5-(4-(2-fluoropropyl)-1H-1,2,3-triazol-1-yl)-4-(isopropylamino)pyridin-2-yl)-9H-purin-2-amine]: 7.55. Next, `CC(C)Nc1cc(-n2ccc3cncnc32)ncc1-c1cn(Cc2cc(=O)[nH]c(=O)[nH]2)nn1` [Example 8, 6-((4-(4-(isopropylamino)-6-(7H-pyrrolo[2,3-d]pyrimidin-7-yl)pyridin-3-yl)-1H-1,2,3-triazol-1-yl)methyl)pyrimidine-2,4(1H,3H)-dione]: 8.15; `CC(C)Nc1cc(-n2ccc3cncnc32)ncc1-c1cn(CCOCCOCCOCCO)nn1` [Example 9, 2-(2-(2-(2-(4-(4-(isopropylamino)-6-(7H-pyrrolo[2,3-d]pyrimidin-7-yl)pyridin-3-yl)-1H-1,2,3-triazol-1-yl)ethoxy)ethoxy)ethoxy) ethanol]: 8.52.

Turning to `CC(C)Nc1cc(-n2ncc3cc(C#N)cnc32)ncc1-c1cn(C2COC2)nn1` [Example 15, 1-(4-(isopropylamino)-5-(1-(oxetan-3-yl)-1H-1,2,3-triazol-4-yl)pyridin-2-yl)-1H-pyrazolo[3,4-b]pyridine-5-carbonitrile], the negative-log IC50 (pIC50) is 8.15. Next, `CC(C)Nc1cc(-n2ncc3cc(C#N)cnc32)ncc1-c1cn(C(C)(C)C)nn1` [Example 18, 1-(5-(1-(tert-butyl)-1H-1,2,3-triazol-4-yl)-4-(isopropylamino)pyridin-2-yl)-1H-pyrazolo[3,4-b]pyridine-5-carbonitrile]: 7.77; `CC(C)Nc1cc(-n2ncc3cc(C#N)cnc32)ncc1-c1cn(C2CCOCC2)nn1` [Example 19, 1-(4-(isopropylamino)-5-(1-(tetrahydro-2H-pyran-4-yl)-1H-1,2,3-triazol-4-yl)pyridin-2-yl)-1H-pyrazolo[3,4-b]pyridine-5-carbonitrile]: 9.00; `CC(C)Nc1cc(-n2cnc3cc(C#N)cnc32)ncc1-c1cn(C(C)(C)C)nn1` [Example 23, 3-(5-(1-(tert-butyl)-1H-1,2,3-triazol-4-yl)-4-(isopropylamino)pyridin-2-yl)-3H-imidazo[4,5-b]pyridine-6-carbonitrile]: 7.02. For the compound `CC(C)Nc1cc(-n2cnc3cc(C#N)cnc32)ncc1-c1cn(C2CCOCC2)nn1` [Example 24, 3-(4-(isopropylamino)-5-(1-(tetrahydro-2H-pyran-4-yl)-1H-1,2,3-triazol-4-yl)pyridin-2-yl)-3H-imidazo[4,5-b]pyridine-6-carbonitrile], the negative logarithm of the IC50 (pIC50) was 8.52. Turning to `CC(C)Nc1cc(-n2ncc3cc(Cl)cnc32)ncc1-c1cn(C2COC2)nn1` [Example 26, 2-(5-chloro-1H-pyrazolo[3,4-b]pyridin-1-yl)-N-isopropyl-5-(1-(oxetan-3-yl)-1H-1,2,3-triazol-4-yl)pyridin-4-amine], the negative-log IC50 (pIC50) is 7.57. Next, `CC(C)Nc1cc(-n2ncc3cc(Cl)cnc32)ncc1-c1cn(CC2CC2)nn1` [Example 27, 2-(5-chloro-1H-pyrazolo [3,4-b]pyridin-1-yl)-5-(1-(cyclopropylmethyl)-1H-1,2,3-triazol-4-yl)-N-isopropylpyridin-4-amine]: 7.80. Next, `CCCn1cc(-c2cnc(-n3ncc4cc(Cl)cnc43)cc2NC2CC2)nn1` [Example 36, 2-(5-chloro-1H-pyrazolo[3,4-b]pyridin-1-yl)-N-cyclopropyl-5-(1-propyl-1H-1,2,3-triazol-4-yl)pyridin-4-amine]: 7.96. Take `CCn1cc(-c2cnc(-n3cnc4cc(C#N)cnc43)cc2NC(C)C)nn1` [Example 38, 3-(5-(1-ethyl-1H-1,2,3-triazol-4-yl)-4-(isopropylamino)pyridin-2-yl)-3H-imidazo[4,5-b]pyridine-6-carbonitrile]: the negative logarithm of the IC50 (pIC50) was 8.00. As for `CCCn1cc(-c2cnc(-n3cnc4cc(C#N)cnc43)cc2NC2CC2)nn1` [Example 43, 3-(4-(cyclopropylamino)-5-(1-propyl-1H-1,2,3-triazol-4-yl)pyridin-2-yl)-3H-imidazo[4,5-b]pyridine-6-carbonitrile], the figure is 8.22; as for `CC(C)Nc1cc(-n2cnc3cc(C#N)cnc32)ncc1-c1cn(CCCF)nn1` [Example 45, 3-(5-(1-(3-fluoropropyl)-1H-1,2,3-triazol-4-yl)-4-(isopropylamino)pyridin-2-yl)-3H-imidazo[4,5-b]pyridine-6-carbonitrile], 8.10.

As to `CC(C)Nc1cc(-n2ncc3cc(C#N)cnc32)ncc1-c1cn(CC#N)nn1` [Example 47, 1-(5-(1-(cyanomethyl)-1H-1,2,3-triazol-4-yl)-4-(isopropylamino)pyridin-2-yl)-1H-pyrazolo[3,4-b]pyridine-5-carbonitrile], the pIC50 was 7.80.
